Test in all cases: DTP human tumour cell line panel, 48 h
Experiment [1] has as its system SR leukemia.
In experiment [2] the test system is A498 renal.
Experiment [3] deals with SF-268 CNS.
The test system of experiment [4] is SNB-19 CNS.
The test system of experiment [5] is OVCAR-5 ovarian.
Experiment [6] concerns NCI-H226 lung.
Experiment [7] deals with U251 CNS.
Experiment [8] relates to HCT-116 colon.
Experiment [9] relates to MALME-3M melanoma.
Experiment [10] relates to HOP-62 NSCLC.

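Five concentrations, 48 hours, 96-well plates. GI50 = concentration required for 50% inhibition of growth. TGI is the concentration that stops growth completely.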

Broadly, the GI50 is the concentration at which growth is held to half of that of the control. Broadly, the TGI is the concentration giving total growth inhibition. A high value points to lower sensitivity of the cells. As to `CCCCCCOc1ccc(/C=N/NC(N)=S)cc1`, the GI50 was 4.22 µM in experiment [1]; 16.8 µM in [2]; 3.31 µM in [3]; 12.3 µM in [4]; 12.8 µM in experiment [5]; 3.65 µM in [6]. Moreover, the GI50 in experiment [7] is 7.96 µM; in experiment [8] it was 3.31 µM; in experiment [9], 2.74 µM; in [10], 60.1 µM. The TGI in experiment [1] is above 100 µM; in experiment [2] it was 32.3 µM; in [3] it was 41.8 µM; in [4] it was above 100 µM; in [5], above 100 µM; in experiment [6], 16.5 µM. Moreover, the TGI is above 100 µM in experiment [7], 16.1 µM in experiment [8], 7.82 µM in [9] and above 100 µM in [10].

Take `C[C@@H]1COCCN1c1nc(-c2cnc(N)cc2C(F)F)nc(N2[C@H](C)COC[C@@H]2C)n1`: the GI50 in experiment [1] was 0.189 µM; in experiment [2], 0.0507 µM; in [3], 0.356 µM; in experiment [4], 0.405 µM; in [5] it was 0.392 µM; in experiment [6] it was 0.2 µM. Moreover, the GI50 is 0.355 µM in [7], 0.485 µM in [8], 0.0875 µM in [9] and 0.332 µM in experiment [10]. The TGI was found to be 4.88 µM in experiment [1]; 0.345 µM in experiment [2]; 16.1 µM in experiment [3]; 14.4 µM in experiment [4]; 16.5 µM in experiment [5]; 11.2 µM in experiment [6]. For the same compound, the TGI in [7] stood at 13.7 µM; in experiment [8], 14.5 µM; in experiment [9], 0.867 µM; in experiment [10], 13.2 µM.

Consider `CCON=C1C(C)(C)C(C)(C)C(C)(C)C1(C)C`, for which the TGI in experiment [1], in [2], in [3], in experiment [4], in experiment [5] and in experiment [6] was above 100 µM in each case. Also, the TGI in experiment [7], in experiment [8], in experiment [9] and in experiment [10] was above 100 µM throughout.

Take `CN(C)c1ccc(C(=O)c2ccc(N(C)C)c(N)c2)cc1N`: the GI50 is 0.406 µM in [1]; 1.03 µM in experiment [2]; 10.2 µM in experiment [3]; 16.7 µM in experiment [4]; 15.8 µM in experiment [5]; 16.8 µM in experiment [6]. Further, the GI50 was 2.79 µM in experiment [7], 2.4 µM in experiment [8] and 5.91 µM in experiment [10]. The TGI is above 16.4 µM in [1]; 18.1 µM in experiment [2]; above 100 µM in experiment [3]; above 39.3 µM in experiment [4]; above 100 µM in [5]; above 82.5 µM in [6]. The TGI is above 100 µM in experiment [7], 31.3 µM in experiment [8], above 100 µM in experiment [9] and above 100 µM in [10].

As for `O=C1c2ccccc2-c2nccc3cc(Cl)nc1c23`, the GI50 in experiment [1] was 1.34 µM; in experiment [2], 6.21 µM; in experiment [3] it was 1.74 µM; in experiment [4], 20.7 µM; in [5] it was above 72.5 µM; in experiment [6] it was 18.7 µM. The GI50 was 2.43 µM in experiment [7], 1.18 µM in experiment [8], 0.908 µM in experiment [9] and 2.89 µM in experiment [10]. Besides, the TGI in experiment [1] was 4.18 µM; in [2], 32.5 µM; in experiment [3], 4.28 µM; in [4], 74.8 µM; in [5], above 100 µM; in [6] it was above 81.5 µM. For the same compound, the TGI in experiment [7] was found to be 10.4 µM; in experiment [8], 2.41 µM; in [9], 2.42 µM; in [10], 18.6 µM.

On to `Nc1nc2c(c3ncccc13)C(c1ccc(Cl)c(Cl)c1)Cc1ncccc1-2` (centres undefined), for which the GI50 was 2.46 µM in experiment [1]; 1.93 µM in [2]; 5.14 µM in [3]; 3.77 µM in [4]; 6.51 µM in [5]; 16.6 µM in experiment [6]. In addition, the GI50 in experiment [7] was 3.78 µM; in [8] it was 3.71 µM; in [9], 8.94 µM; in [10], 2.96 µM. For the same compound, the TGI in [1] amounted to 13 µM; in [2], 5.85 µM; in experiment [3] it was 23.4 µM; in experiment [4] it was 14.4 µM; in experiment [5] it was 24.2 µM; in [6] it was 41.5 µM. Also, the TGI was found to be 13.9 µM in [7], 14.1 µM in experiment [8], 26.3 µM in experiment [9] and 14 µM in experiment [10].

As for `Cn1c(=O)c(Oc2cccc(F)c2)cc2cnc(NC3CCOCC3)nc21`, the GI50 in experiment [1] was above 25 µM; in [2] it was 8.11 µM; in [3], above 25 µM; in experiment [4], above 25 µM; in experiment [5], above 25 µM; in experiment [6], above 25 µM. The GI50 in [7], in [8], in experiment [9] and in [10] was above 25 µM throughout. Also, the TGI in [1], in experiment [2], in [3], in [4], in experiment [5] and in [6] was above 25 µM each time. In addition, the TGI in experiment [7], in experiment [8], in [9] and in [10] was above 25 µM in each case.

On to `O=C1c2ccccc2-c2c1c1ccc([N+](=O)[O-])cc1c(=O)n2CCNCCCNCCn1c2c(c3ccc([N+](=O)[O-])cc3c1=O)C(=O)c1ccccc1-2`, for which the GI50 was 0.005 µM in experiment [1]; 1.82 µM in experiment [2]; 0.0881 µM in [3]; 0.126 µM in [4]; 0.673 µM in [5]; 0.125 µM in experiment [6]. The GI50 in [7] was 0.166 µM; in experiment [8], 0.129 µM; in [9] it was 0.626 µM; in experiment [10], 0.742 µM. Further, the TGI was 18.8 µM in [1]; 19.1 µM in experiment [2]; 12.5 µM in experiment [3]; 4.94 µM in [4]; 6.42 µM in [5]; 3.16 µM in experiment [6]. Further, the TGI in experiment [7] was found to be 3.63 µM; in [8], 4.5 µM; in experiment [9], 30.8 µM; in experiment [10] it was 7.51 µM.

The values above are taken from PubChem BioAssay (NCI).
